{"source": "patent US20020137929A1", "about": "“1 - (3-heterocyclylphenyl) isothiourea, -isourea, -guanidine and -amidine herbicidal agents” (Intellectual Property Department, BASF Aktiengesellschaft, priority 1998, published 2002)", "key": {"[1]": {"test_system": "SAGPY (Arrowhead (Pygmaea))", "assay": "Preemergence weed control under flooded paddy conditions", "type": "in vivo, Sagittaria pygmaea", "details": "rated 3-4 weeks after treatment", "method": "(§1) Results of herbicide evaluation are expressed on a rating scale (0-9). The scale is based upon a visual observation of plant stand, vigor, malformation, size, chlorosis and overall plant appearance as compared with a control.\n(§2) Preemergence herbicidal activity under flooded paddy conditions is determined as follows: plant seeds or propagating organs are planted in the top 0.5 cm of silt loam soil in 32 oz. plastic containers with a diameter of 10.5 cm and no drainage holes. Water is added to these containers and maintained at 1.5 to 3 cm above the soil surface for the duration of the experiment. The test compounds are applied as aqueous/acetone mixtures 50/50 v/v pipetted directly into the flood water to give the equivalent of about 0.0313 to 0.500 kg/ha of active ingredient. The treated containers are placed on greenhouse benches and cared for in accordance with conventional greenhouse procedures. Three to four weeks after treatment, the test is terminated and each container is examined and herbicidal effect rated according to the rating system provided in Example 37. The compounds evaluated are reported by compound number given in Example 37.\n(§3) Plant species employed in this example are reported by header abbreviation, common name and scientific name."}, "ECHCG (Barnyardgrass)": {"test_system": "ECHCG (Barnyardgrass)", "assay": "Postemergence herbicidal evaluation", "type": "in vivo, Echinochloa crus-galli", "details": "postemergence", "method": "(§4) In the tests, seedling plants are grown in jiffy flats for about two weeks. The test compounds are dispersed in 50/50 acetone/water mixtures containing 0.5% TWEEN®20, a polyoxyethylene sorbitan monolaurate surfactant of Atlas Chemical Industries, in sufficient quantities to provide the equivalent of about 0.0156 kg to 0.500 kg per hectare of active compound when applied to the plants through a spray nozzle operating at 40 psi for a predetermined time. After spraying, the plants are placed on greenhouse benches and are cared for in accordance with conventional greenhouse procedures. From four to five weeks after treatment, the seedling plants are examined and rated according to the rating system set forth below. Where more than one test is involved for a given compound, the data are averaged.\n(§5) Plant species employed in these evaluations are reported by header abbreviation, common name and scientific name.\nas §1"}, "MOOVA (Monochoria)": {"test_system": "MOOVA (Monochoria)", "assay": "Preemergence weed control under flooded paddy conditions", "type": "in vivo, Monochoria vaginalis", "details": "rated 3-4 weeks after treatment", "method": "as §1, §2, §3"}, "ORYSAT (Rice, Tebonnet) [2]": {"test_system": "ORYSAT (Rice, Tebonnet)", "assay": "Postemergence herbicidal evaluation", "type": "in vivo, Oryza sativa, (L.) Tebonnet", "details": "postemergence", "method": "as §4, §5, §1"}, "ORYSAT (Rice, Tebonnet) [3]": {"test_system": "ORYSAT (Rice, Tebonnet)", "assay": "Preemergence herbicidal evaluation", "type": "in vivo, Oryza sativa, (L.) Tebonnet", "details": "rated 4-5 weeks after treatment", "description": "as §1\n(§6) The preemergence herbicidal activity of the test compounds of the present invention is exemplified by the following tests in which the seeds of a variety of monocotyledonous and dicotyledonous plants are separately mixed with potting soil and planted on top of approximately one inch of soil in separate pint cups. After planting, the cups are sprayed with the selected aqueous acetone solution containing test compound in sufficient quantity to provide the equivalent of about 0.0156 to 0.500 kg per hectare of test compound per cup. The treated cups are then placed on greenhouse benches, watered and cared for in accordance with conventional greenhouse procedures. From four to five weeks after treatment, the tests are terminated and each cup is examined and rated according to the rating system provided in Example 37.\n(§7) The compounds evaluated are reported by compound number given in Example 37."}, "CYPIR (Rice Flatsedge)": {"test_system": "CYPIR (Rice Flatsedge)", "assay": "Preemergence weed control under flooded paddy conditions", "type": "in vivo, Cyperus iria", "details": "rated 3-4 weeks after treatment", "method": "as §1, §2, §3"}, "[4]": {"test_system": "TRZAWR (Wheat, Winter, cv Riband)", "assay": "Preemergence herbicidal evaluation", "type": "in vivo, Triticum aestivum", "details": "rated 4-5 weeks after treatment", "description": "as §1, §6, §7"}, "ZEAMX (Corn, Field)": {"test_system": "ZEAMX (Corn, Field)", "assay": "Preemergence herbicidal evaluation", "type": "in vivo, Zea mays", "details": "rated 4-5 weeks after treatment", "description": "as §1, §6, §7"}, "SETVI (Foxtail, Green)": {"test_system": "SETVI (Foxtail, Green)", "assay": "Preemergence herbicidal evaluation", "type": "in vivo, Setaria viridis", "details": "rated 4-5 weeks after treatment", "description": "as §1, §6, §7"}, "CASOB (Sicklepod)": {"test_system": "CASOB (Sicklepod)", "assay": "Postemergence herbicidal evaluation", "type": "in vivo, Cassia obtusifolia", "details": "postemergence", "how_it_was_run": "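Rate range approx. 0.0156–0.500 kg/ha. Foliar application at 40 psi to ~2-week seedlings; surfactant 0.5% TWEEN 20 in 50/50 acetone/water. Evaluation 4–5 wk post-treatment by 0–9 visual injury score, means of replicate tests.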"}, "[5]": {"test_system": "GLXMAW (Soybean, Williams)", "assay": "Preemergence herbicidal evaluation", "type": "in vivo, Glycine max, (L.) Merr. cv Williams", "details": "rated 4-5 weeks after treatment", "description": "as §1, §6, §7"}, "GALAP (Galium)": {"test_system": "GALAP (Galium)", "assay": "Preemergence herbicidal evaluation", "type": "in vivo, Galium aparine", "details": "rated 4-5 weeks after treatment", "description": "as §1, §6, §7"}, "[6]": {"test_system": "CHEAL (Lambsquarters, Common)", "assay": "Postemergence herbicidal evaluation", "type": "in vivo, Chenopodium album", "details": "postemergence", "method": "as §4, §5, §1"}}, "data": [{"smiles": "CCOC(=O)CN1C(=O)CN(C)C1=Nc1cc(-n2c(=O)cc(C(F)(F)F)n(C)c2=O)c(F)cc1Cl", "note": "[Compound 25, Ethyl 2-{{2-chloro-5-[3,6-dihydro-3-methyl-2,6-dioxo-4-(trifluoromethyl)-1(2H)-pyrimidinyl]-4-fluorophenyl}imino}-3-methyl-5-oxo-1-imidazolidineacetate]", "values": [{"measurement": "Herbicidal rating SAGPY", "setting": "[1]; 0.0313 kg/ha", "result": 0.0}, {"measurement": "Herbicidal rating SAGPY", "setting": "[1]; 0.0625 kg/ha", "result": 0.0}, {"measurement": "Herbicidal rating SAGPY", "setting": "[1]; 0.1250 kg/ha", "result": 5.0}, {"measurement": "Herbicidal rating SAGPY", "setting": "[1]; 0.2500 kg/ha", "result": 5.0}, {"measurement": "ECHCG herbicidal rating", "setting": "ECHCG (Barnyardgrass); rate 0.0156 kg/ha", "result": 0.0}, {"measurement": "ECHCG herbicidal rating", "setting": "ECHCG (Barnyardgrass); rate 0.0313 kg/ha", "result": 0.0}, {"measurement": "ECHCG herbicidal rating", "setting": "ECHCG (Barnyardgrass); rate 0.0625 kg/ha", "result": 0.0}, {"measurement": "Herbicidal rating MOOVA", "setting": "MOOVA (Monochoria); 0.0313 kg/ha", "result": 9.0}, {"measurement": "Herbicidal rating MOOVA", "setting": "MOOVA (Monochoria); 0.0625 kg/ha", "result": 9.0}, {"measurement": "Herbicidal rating MOOVA", "setting": "MOOVA (Monochoria); 0.1250 kg/ha", "result": 9.0}, {"measurement": "Herbicidal rating MOOVA", "setting": "MOOVA (Monochoria); 0.2500 kg/ha", "result": 9.0}, {"measurement": "ORYSAT herbicidal rating", "setting": "ORYSAT (Rice, Tebonnet) [2]; rate 0.0156 kg/ha", "result": 0.5}, {"measurement": "ORYSAT herbicidal rating", "setting": "ORYSAT (Rice, Tebonnet) [2]; rate 0.0313 kg/ha", "result": 2.0}, {"measurement": "ORYSAT herbicidal rating", "setting": "ORYSAT (Rice, Tebonnet) [2]; rate 0.0625 kg/ha", "result": 2.0}, {"measurement": "Preemergence herbicidal rating ORYSAT", "setting": "ORYSAT (Rice, Tebonnet) [3]; rate 0.0156 kg/ha", "result": 0.0}, {"measurement": "Preemergence herbicidal rating ORYSAT", "setting": "ORYSAT (Rice, Tebonnet) [3]; rate 0.0313 kg/ha", "result": 0.0}, {"measurement": "ORYSAT preemergence herbicidal rating", "setting": "ORYSAT (Rice, Tebonnet) [3]; rate 0.0625 kg/ha", "result": 0.0}, {"measurement": "ORYSAT preemergence herbicidal rating", "setting": "ORYSAT (Rice, Tebonnet) [3]; rate 0.1250 kg/ha", "result": 2.0}, {"measurement": "ORYSAT preemergence herbicidal rating", "setting": "ORYSAT (Rice, Tebonnet) [3]; rate 0.2500 kg/ha", "result": 5.0}, {"measurement": "Herbicidal rating CYPIR", "setting": "CYPIR (Rice Flatsedge); 0.0313 kg/ha", "result": 0.0}, {"measurement": "Herbicidal rating CYPIR", "setting": "CYPIR (Rice Flatsedge); 0.0625 kg/ha", "result": 0.0}, {"measurement": "Herbicidal rating CYPIR", "setting": "CYPIR (Rice Flatsedge); 0.1250 kg/ha", "result": 0.0}, {"measurement": "Herbicidal rating CYPIR", "setting": "CYPIR (Rice Flatsedge); 0.2500 kg/ha", "result": 0.0}, {"measurement": "Preemergence herbicidal rating TRZAWR", "setting": "[4]; rate 0.0156 kg/ha", "result": 0.0}, {"measurement": "Preemergence herbicidal rating TRZAWR", "setting": "[4]; rate 0.0313 kg/ha", "result": 1.0}, {"measurement": "TRZAWR preemergence herbicidal rating", "setting": "[4]; rate 0.0625 kg/ha", "result": 2.0}, {"measurement": "TRZAWR preemergence herbicidal rating", "setting": "[4]; rate 0.1250 kg/ha", "result": 3.0}, {"measurement": "TRZAWR preemergence herbicidal rating", "setting": "[4]; rate 0.2500 kg/ha", "result": 6.0}, {"measurement": "Preemergence herbicidal rating ZEAMX", "setting": "ZEAMX (Corn, Field); rate 0.0156 kg/ha", "result": 0.0}, {"measurement": "Preemergence herbicidal rating ZEAMX", "setting": "ZEAMX (Corn, Field); rate 0.0313 kg/ha", "result": 0.0}, {"measurement": "ZEAMX preemergence herbicidal rating", "setting": "ZEAMX (Corn, Field); rate 0.0625 kg/ha", "result": 6.0}, {"measurement": "ZEAMX preemergence herbicidal rating", "setting": "ZEAMX (Corn, Field); rate 0.1250 kg/ha", "result": 8.0}, {"measurement": "ZEAMX preemergence herbicidal rating", "setting": "ZEAMX (Corn, Field); rate 0.2500 kg/ha", "result": 9.0}, {"measurement": "Preemergence herbicidal rating SETVI", "setting": "SETVI (Foxtail, Green); rate 0.0156 kg/ha", "result": 0.0}, {"measurement": "Preemergence herbicidal rating SETVI", "setting": "SETVI (Foxtail, Green); rate 0.0313 kg/ha", "result": 0.0}, {"measurement": "SETVI preemergence herbicidal rating", "setting": "SETVI (Foxtail, Green); rate 0.0625 kg/ha", "result": 7.0}, {"measurement": "SETVI preemergence herbicidal rating", "setting": "SETVI (Foxtail, Green); rate 0.1250 kg/ha", "result": 9.0}, {"measurement": "SETVI preemergence herbicidal rating", "setting": "SETVI (Foxtail, Green); rate 0.2500 kg/ha", "result": 9.0}, {"measurement": "CASOB herbicidal rating", "setting": "CASOB (Sicklepod); rate 0.0156 kg/ha", "result": 0.0}, {"measurement": "CASOB herbicidal rating", "setting": "CASOB (Sicklepod); rate 0.0313 kg/ha", "result": 0.0}, {"measurement": "CASOB herbicidal rating", "setting": "CASOB (Sicklepod); rate 0.0625 kg/ha", "result": 0.0}, {"measurement": "Preemergence herbicidal rating GLXMAW", "setting": "[5]; rate 0.0156 kg/ha", "result": 0.0}, {"measurement": "Preemergence herbicidal rating GLXMAW", "setting": "[5]; rate 0.0313 kg/ha", "result": 0.0}, {"measurement": "GLXMAW preemergence herbicidal rating", "setting": "[5]; rate 0.0625 kg/ha", "result": 2.0}, {"measurement": "GLXMAW preemergence herbicidal rating", "setting": "[5]; rate 0.1250 kg/ha", "result": 3.0}, {"measurement": "GLXMAW preemergence herbicidal rating", "setting": "[5]; rate 0.2500 kg/ha", "result": 6.0}, {"measurement": "Preemergence herbicidal rating GALAP", "setting": "GALAP (Galium); rate 0.0156 kg/ha", "result": 0.0}, {"measurement": "Preemergence herbicidal rating GALAP", "setting": "GALAP (Galium); rate 0.0313 kg/ha", "result": 0.0}, {"measurement": "GALAP preemergence herbicidal rating", "setting": "GALAP (Galium); rate 0.0625 kg/ha", "result": 0.0}, {"measurement": "GALAP preemergence herbicidal rating", "setting": "GALAP (Galium); rate 0.1250 kg/ha", "result": 0.0}, {"measurement": "GALAP preemergence herbicidal rating", "setting": "GALAP (Galium); rate 0.2500 kg/ha", "result": 0.0}, {"measurement": "CHEAL herbicidal rating", "setting": "[6]; rate 0.0156 kg/ha", "result": 2.0}, {"measurement": "CHEAL herbicidal rating", "setting": "[6]; rate 0.0313 kg/ha", "result": 5.0}, {"measurement": "CHEAL herbicidal rating", "setting": "[6]; rate 0.0625 kg/ha", "result": 9.0}]}]}
